Results reported in paper PMC10281575, “PfCRT mutations conferring piperaquine resistance in falciparum malaria shape the kinetics of quinoline drug binding and transport” (PLOS Pathogens, 2023).
Values joined by “and” are separate entries in the source; they are usually repeats but may differ in a detail not shown here. Identical values can stand only once. Like-named read-outs stand apart in the source and are kept apart here.

Biological target: T1, PfCRT^Dd2_F145I (Plasmodium falciparum, UniProt Q8IBZ9, A220S/F145I/I356T/K76T/M74I/N326S/N75E/Q271E/R371I)
T1 construct: expressed in transfected cells; host or cells: Xenopus laevis oocytes injected with in vitro transcribed RNA (pSP64T)
T1 sequence (Q8IBZ9 1-424 M74I/N75E/K76T/F145I/A220S/Q271E/N326S/I356T/R371I): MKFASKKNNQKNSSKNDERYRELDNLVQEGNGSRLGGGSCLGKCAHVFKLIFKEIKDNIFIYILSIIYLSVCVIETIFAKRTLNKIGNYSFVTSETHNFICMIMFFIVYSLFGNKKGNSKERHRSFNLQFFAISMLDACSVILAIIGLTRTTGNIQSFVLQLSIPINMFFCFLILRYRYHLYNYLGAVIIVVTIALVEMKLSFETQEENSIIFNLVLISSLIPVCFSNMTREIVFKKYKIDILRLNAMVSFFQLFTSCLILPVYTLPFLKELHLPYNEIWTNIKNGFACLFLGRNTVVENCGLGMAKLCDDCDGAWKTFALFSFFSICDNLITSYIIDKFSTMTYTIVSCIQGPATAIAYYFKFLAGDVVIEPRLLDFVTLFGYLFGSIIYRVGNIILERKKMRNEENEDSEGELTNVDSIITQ
Test: Competition kinetics of drug transport (radiolabeled substrate plus cold inhibitor), PfCRT^Dd2_F145I-expressing oocytes
Type: cell-based
Conditions: for Vmax, maximal velocity of drug transport: global fit; for β, partiality factor: factor on transport of the labeled drug by the other drug
Method: To further characterize the kinetic relationship between CQ and PPQ, we performed a series of competition reactions. To this end, water-injected oocytes and PfCRT-expressing oocytes were incubated in medium containing one of seven concentrations of radio-labeled CQ and one of six concentrations of cold PPQ for 60 min before the amount of radio-labeled CQ uptake was determined. The rate of PfCRT-mediated CQ uptake was calculated for each condition by subtracting the corresponding value obtained for water-injected oocytes from those of PfCRT-expressing oocytes. The results were analyzed as a function of the CQ concentration (Fig 4A) and 16 different models of substrate competition were globally fit to the data by the least-squares method, using Python. The models were ranked, according to their Akaike information criterion difference (ΔAICC) and their Akaike weight (Fig 4B), with the most plausible model being the one with the lowest AICC (ΔAICC = 0) and the highest Akaike weight.
A complementary set of experiments was undertaken to investigate the kinetic mechanism by which PfCRT^Dd2_F145I accepts CQ and PPQ (Fig 6). […] These included a global fit of the substrate competition data to the 16 kinetic models (Fig 6), analysis of the secondary plots (Vmax,app and Vmax,app/KM,app as a function of the inhibitor concentration) (Fig 7A), a fractional velocity plot analysis (Fig 7B) and a comparison of the experimental data with the modelled data using the noncompetitive inhibition equation (Fig 7C to 7F). […] The fractional velocity plot illustrated the partial character of the noncompetitive inhibition mechanism by yielding a partiality factor β^CQ = 0.31 ± 0.04, by which PPQ reduces the transport velocity of CQ (Fig 7B). […] A 3D model of the kinetics between PfCRT^Dd2_F145I, CQ and PPQ, and analyses of the residuals as a function of substrate and inhibitor concentrations confirmed that the model was also an appropriate explanation for the mutant transporter (Fig 7C to 7F).
Drug transport assays were performed as previously described. Briefly, measurements of radiolabeled drug uptake were made over 1 h, unless otherwise specified. […] Where specified, one or more unlabeled drugs were also present at the indicated concentrations. The direction of drug transport in the assays is from the extracellular medium (pH 6) into the oocyte cytosol (pH 7.2), which corresponds to the efflux of CQ or PPQ from the acidic digestive vacuole (pH 5.2) into the parasite cytosol (pH 7.2). The uptake assays were terminated by removing the oocytes from the reaction medium and washing them three times with 2 mL of ice-cold ND96 buffer. Each oocyte was transferred to a separate scintillation vial and lysed by the addition of 200 μL of a 5% SDS solution. The radioactivity in the sample was measured using a liquid scintillation analyser Tri-Carb 4910 TR (PerkinElmer). Water-injected oocytes were analyzed in parallel as a negative control. The buffer from each condition was measured in duplicate in parallel to each experiment to transform counts per minute into pmol of drug. Drug uptake attributable to PfCRT was determined by subtracting the background uptake from water-injected oocytes from that of PfCRT-expressing oocytes. In all cases, at least three independent experiments were performed on oocytes from different frogs, and for each condition in an experiment, measurements were made from 10 oocytes per treatment.
The following equations were adopted from Segel (1993), and the reader is referred to that text for the assumptions made in the author’s approach in the derivation of each equation [31]. The concentration of substrate is denoted as [S1] and the concentration of the inhibiting substrate is denoted as [S2]. KS1 and KS2 are the dissociation constants for the respective substrate-protein complexes.
Analyses of the kinetic data were performed using SigmaPlot version 13.0 and Python. […]

## CCN(CC)CCCC(C)Nc1ccnc2cc(Cl)ccc12 (centres unmarked) [CQ, chloroquine]
10 µM CQ, 50 µM PPQ
  PfCRTDd2_F145I-mediated CQ transport: 0.59 pmol oocyte-1 h-1 and 0.39 pmol oocyte-1 h-1
10 µM CQ, 125 µM PPQ
  PfCRTDd2_F145I-mediated CQ transport: 0.68 pmol oocyte-1 h-1 and 0.58 pmol oocyte-1 h-1 and 0.47 pmol oocyte-1 h-1
10 µM CQ, 200 µM PPQ
  PfCRTDd2_F145I-mediated CQ transport: 0.27 pmol oocyte-1 h-1 and 0.32 pmol oocyte-1 h-1 and 0.33 pmol oocyte-1 h-1
10 µM CQ, 350 µM PPQ
  PfCRTDd2_F145I-mediated CQ transport: 0.43 pmol oocyte-1 h-1 and 0.31 pmol oocyte-1 h-1 and 0.46 pmol oocyte-1 h-1
50 µM CQ, 0 µM PPQ
  PfCRTDd2_F145I-mediated CQ transport: 3.80 pmol oocyte-1 h-1 and 4.28 pmol oocyte-1 h-1 and 2.84 pmol oocyte-1 h-1
50 µM CQ, 50 µM PPQ
  PfCRTDd2_F145I-mediated CQ transport: 3.24 pmol oocyte-1 h-1 and 2.4 pmol oocyte-1 h-1 and 3.22 pmol oocyte-1 h-1
50 µM CQ, 125 µM PPQ
  PfCRTDd2_F145I-mediated CQ transport: 3.47 pmol oocyte-1 h-1 and 2.37 pmol oocyte-1 h-1 and 2.11 pmol oocyte-1 h-1
50 µM CQ, 200 µM PPQ
  PfCRTDd2_F145I-mediated CQ transport: 2.85 pmol oocyte-1 h-1 and 2.54 pmol oocyte-1 h-1 and 2.07 pmol oocyte-1 h-1
50 µM CQ, 350 µM PPQ
  PfCRTDd2_F145I-mediated CQ transport: 1.72 pmol oocyte-1 h-1 and 1.78 pmol oocyte-1 h-1 and 2.56 pmol oocyte-1 h-1
50 µM CQ, 500 µM PPQ
  PfCRTDd2_F145I-mediated CQ transport: 1.90 pmol oocyte-1 h-1 and 2.40 pmol oocyte-1 h-1
100 µM CQ, 0 µM PPQ
  PfCRTDd2_F145I-mediated CQ transport: 5.25 pmol oocyte-1 h-1 and 7.33 pmol oocyte-1 h-1 and 8.14 pmol oocyte-1 h-1
100 µM CQ, 125 µM PPQ
  PfCRTDd2_F145I-mediated CQ transport: 4.86 pmol oocyte-1 h-1 and 5.68 pmol oocyte-1 h-1 and 5.61 pmol oocyte-1 h-1
100 µM CQ, 200 µM PPQ
  PfCRTDd2_F145I-mediated CQ transport: 4.12 pmol oocyte-1 h-1 and 4.69 pmol oocyte-1 h-1 and 4.23 pmol oocyte-1 h-1
100 µM CQ, 350 µM PPQ
  PfCRTDd2_F145I-mediated CQ transport: 3.37 pmol oocyte-1 h-1 and 4.27 pmol oocyte-1 h-1 and 5.15 pmol oocyte-1 h-1
200 µM CQ, 0 µM PPQ
  PfCRTDd2_F145I-mediated CQ transport: 12.53 pmol oocyte-1 h-1 and 12.79 pmol oocyte-1 h-1
200 µM CQ, 50 µM PPQ
  PfCRTDd2_F145I-mediated CQ transport: 14.25 pmol oocyte-1 h-1 and 10 pmol oocyte-1 h-1 and 10.59 pmol oocyte-1 h-1
200 µM CQ, 125 µM PPQ
  PfCRTDd2_F145I-mediated CQ transport: 10.11 pmol oocyte-1 h-1 and 9.30 pmol oocyte-1 h-1 and 9.95 pmol oocyte-1 h-1
200 µM CQ, 200 µM PPQ
  PfCRTDd2_F145I-mediated CQ transport: 7.48 pmol oocyte-1 h-1 and 7.15 pmol oocyte-1 h-1 and 10.15 pmol oocyte-1 h-1
200 µM CQ, 350 µM PPQ
  PfCRTDd2_F145I-mediated CQ transport: 6.25 pmol oocyte-1 h-1 and 7.4 pmol oocyte-1 h-1 and 8.42 pmol oocyte-1 h-1
200 µM CQ, 500 µM PPQ
  PfCRTDd2_F145I-mediated CQ transport: 7.88 pmol oocyte-1 h-1 and 6.35 pmol oocyte-1 h-1
300 µM CQ, 0 µM PPQ
  PfCRTDd2_F145I-mediated CQ transport: 13.73 pmol oocyte-1 h-1 and 19.15 pmol oocyte-1 h-1
300 µM CQ, 50 µM PPQ
  PfCRTDd2_F145I-mediated CQ transport: 13.84 pmol oocyte-1 h-1 and 14.19 pmol oocyte-1 h-1 and 16.04 pmol oocyte-1 h-1
300 µM CQ, 125 µM PPQ
  PfCRTDd2_F145I-mediated CQ transport: 11.05 pmol oocyte-1 h-1 and 9.73 pmol oocyte-1 h-1 and 15.82 pmol oocyte-1 h-1
300 µM CQ, 200 µM PPQ
  PfCRTDd2_F145I-mediated CQ transport: 10.02 pmol oocyte-1 h-1 and 12.63 pmol oocyte-1 h-1 and 9.83 pmol oocyte-1 h-1
300 µM CQ, 350 µM PPQ
  PfCRTDd2_F145I-mediated CQ transport: 9.31 pmol oocyte-1 h-1 and 9.21 pmol oocyte-1 h-1 and 10.66 pmol oocyte-1 h-1
300 µM CQ, 500 µM PPQ
  PfCRTDd2_F145I-mediated CQ transport: 9.09 pmol oocyte-1 h-1 and 11.47 pmol oocyte-1 h-1
400 µM CQ, 0 µM PPQ
  PfCRTDd2_F145I-mediated CQ transport: 14.23 pmol oocyte-1 h-1 and 18.19 pmol oocyte-1 h-1
400 µM CQ, 50 µM PPQ
  PfCRTDd2_F145I-mediated CQ transport: 15.01 pmol oocyte-1 h-1 and 14.7 pmol oocyte-1 h-1 and 18.28 pmol oocyte-1 h-1
400 µM CQ, 125 µM PPQ
  PfCRTDd2_F145I-mediated CQ transport: 14.33 pmol oocyte-1 h-1 and 12.62 pmol oocyte-1 h-1 and 13.88 pmol oocyte-1 h-1
400 µM CQ, 200 µM PPQ
  PfCRTDd2_F145I-mediated CQ transport: 9.98 pmol oocyte-1 h-1 and 13.36 pmol oocyte-1 h-1 and 12.15 pmol oocyte-1 h-1
400 µM CQ, 350 µM PPQ
  PfCRTDd2_F145I-mediated CQ transport: 7.72 pmol oocyte-1 h-1 and 13.35 pmol oocyte-1 h-1 and 10.83 pmol oocyte-1 h-1
500 µM CQ, 0 µM PPQ
  PfCRTDd2_F145I-mediated CQ transport: 19.16 pmol oocyte-1 h-1 and 17.86 pmol oocyte-1 h-1
500 µM CQ, 50 µM PPQ
  PfCRTDd2_F145I-mediated CQ transport: 16.43 pmol oocyte-1 h-1 and 15.64 pmol oocyte-1 h-1 and 17.36 pmol oocyte-1 h-1
500 µM CQ, 125 µM PPQ
  PfCRTDd2_F145I-mediated CQ transport: 14.97 pmol oocyte-1 h-1 and 16.69 pmol oocyte-1 h-1 and 12.9 pmol oocyte-1 h-1
500 µM CQ, 200 µM PPQ
  PfCRTDd2_F145I-mediated CQ transport: 12.08 pmol oocyte-1 h-1 and 15.16 pmol oocyte-1 h-1 and 13.13 pmol oocyte-1 h-1
500 µM CQ, 350 µM PPQ
  PfCRTDd2_F145I-mediated CQ transport: 10.85 pmol oocyte-1 h-1 and 12.45 pmol oocyte-1 h-1 and 11.74 pmol oocyte-1 h-1
16 models, ΔAICC, Akaike weight, secondary plots
  most plausible inhibition model: partial noncompetitive inhibition
Mixed (Partial) model, drug as radiolabeled substrate
  Vmax, maximal velocity of drug transport: 34 ± 2 pmol oocyte^-1 h^-1
Mixed (Partial) model, drug as cold inhibitor, read-out: KS, dissociation constant for the PfCRT-substrate complex
  Kd: 200 ± 90 µM
Mixed (Partial) model, drug as radiolabeled substrate, read-out: KS, dissociation constant for the PfCRT-substrate complex
  Kd: 350 ± 50 µM
Mixed (Partial) model
  β, partiality factor: 0.41 ± 0.08
Mixed (Partial) model, label = radiolabeled substrate, other drug cold inhibitor
  α, KS interaction factor: 1.0 ± 0.3
Noncompetitive (Partial) model, drug as radiolabeled substrate, other drug as cold inhibitor
  Vmax, maximal velocity of drug transport: 34 pmol oocyte^-1 h^-1 and 34 ± 2 pmol oocyte^-1 h^-1
Noncompetitive (Partial) model, drug as cold inhibitor, read-out: KS, dissociation constant for the PfCRT-substrate complex
  Kd: 225 µM and 230 µM
Noncompetitive (Partial) model, drug as radiolabeled substrate, read-out: KS, dissociation constant for the PfCRT-substrate complex
  Kd: 357 µM and 360 µM
Noncompetitive (Partial) model
  β, partiality factor: 0.40 and 0.40 ± 0.04
[PPQ] 0 µM
  KMapp ([3H]CQ + PPQ): 355.22 µM
  Vmaxapp ([3H]CQ + PPQ): 32.70 pmol oocyte-1 h-1
  Vmaxapp/KMapp ([3H]CQ + PPQ): 0.0962 h⁻¹
[PPQ] 50 µM
  KMapp ([3H]CQ + PPQ): 351.46 µM
  Vmaxapp ([3H]CQ + PPQ): 27.98 pmol oocyte-1 h-1
  Vmaxapp/KMapp ([3H]CQ + PPQ): 0.0844 h⁻¹
[PPQ] 125 µM
  KMapp ([3H]CQ + PPQ): 355.14 µM
  Vmaxapp ([3H]CQ + PPQ): 25.60 pmol oocyte-1 h-1
  Vmaxapp/KMapp ([3H]CQ + PPQ): 0.0728 h⁻¹
[PPQ] 200 µM
  KMapp ([3H]CQ + PPQ): 365.31 µM
  Vmaxapp ([3H]CQ + PPQ): 21.83 pmol oocyte-1 h-1
  Vmaxapp/KMapp ([3H]CQ + PPQ): 0.0619 h⁻¹
[PPQ] 350 µM
  KMapp ([3H]CQ + PPQ): 375.85 µM
  Vmaxapp ([3H]CQ + PPQ): 19.75 pmol oocyte-1 h-1
  Vmaxapp/KMapp ([3H]CQ + PPQ): 0.0554 h⁻¹
[PPQ] 500 µM
  KMapp ([3H]CQ + PPQ): 353.13 µM
  Vmaxapp ([3H]CQ + PPQ): 17.90 pmol oocyte-1 h-1
  Vmaxapp/KMapp ([3H]CQ + PPQ): 0.0540 h⁻¹
Fractional velocity plot, factor by which PPQ reduces the transport velocity of CQ
  β^CQ, partiality factor: 0.31 ± 0.04
Secondary plot, half-maximal inhibitory concentration of Vmax,app versus inhibitor concentration, read-out: αKS, dissociation constant between the drug and the PfCRT complex with the other drug
  Kd: 210 ± 120 µM
Secondary plot, half-maximal inhibitory concentration of Vmax,app/KM,app versus inhibitor concentration, read-out: KS, dissociation constant between the drug and PfCRT
  Kd: 250 ± 150 µM
Secondary plots, label = prebound drug
  α (αKS divided by KS): 1.0 ± 0.3
